Measured values taken from patent US11439685B2, “Formulations for treating a fibrotic disease” (TRUSTEES OF BOSTON UNIVERSITY, priority 2020, dated 2022).
“Also recorded” adds a separate entry of the source. Where two headings read alike, the source gives them in different places.

What was measured:
[1] = system: cultured renal fibroblasts, epithelial cells and mesangial cells; conditions: TGF-β-induced; cited from earlier work
[2] = system: shoulder joint in an animal model of shoulder contracture; experiment: Histological analysis of the shoulder joint in rat contracture model; type: in vivo, rats; conditions: immobilized shoulders, FIG. 12
[3] = system: collagen build-up in the lung induced by bleomycin; conditions: cited from earlier work
[4] = system: heart failure; conditions: 30 micrograms/kg/day for 2 days, intravenous infusion; cited from earlier work
[5] = system: glenohumeral joint in an animal model of shoulder contracture; experiment: Range of motion in rat shoulder contracture model; type: in vivo, rats
Experimental: The study was approved by the Institutional Animal Care and Use Committee, and 10 Sprague-Dawley rats (250-300 g, Charles River Laboratories, Wilmington, Mass., USA) were used in the study. For each animal, torque was measured per degree, on the intact left shoulder as a function of rotation angle between 80° of internal rotation (negative values by convention) and 60° of external rotation (positive values by convention) prior to any surgical intervention (baseline). […] Therefore, torque values at 60° external rotation (τOUT) and 800 of internal rotation (τINT) were recorded for each animal. The left forelimb of each animal was immobilized using extraarticular internal fixation. Under isoflurane anesthesia, a longitudinal skin incision was made perpendicular to the scapular spine. Two No. 2-0 braided polyester sutures (Ethibond Excel, Ethicon—San Lorenzo, PR, USA) were passed between the medial border of the scapula and the humeral shaft and tightened to immobilize the shoulder joint (FIG. 1, panel A). Muscular structures were not manipulated during surgery, and the animals were allowed normal activity in their cages immediately after the procedure. After 8 weeks of immobilization, the restraining sutures were removed, and the 10 animals were divided into two groups to evaluate changes in ROM (ROM group, n=5) and joint stiffness (stiffness group, n=5). In the ROM group, changes in kinematics were longitudinally quantified in the follow-up period by measuring the ROM achieved with the TOUT and TINT measured at baseline. This was conducted to evaluate whether immobilization mediated a significant reduction in ROM. In the stiffness group, joint kinetics were examined by measuring the differences in TOUT and TINT needed to achieve the original 800 of internal rotation and 60° of external rotation, respectively. […] The baseline measurements for each group were used as internal controls to reduce the total number of animals necessary for the study. […] ROM and torque measurements were performed under general anesthesia using a device that consisted of a sensor assembly, a rotating axle, and an arm clamp. The sensor assembly contained an orientation sensor (3DM-GX3-15, MicroStrain—Williston, Vt.), as well as a reaction torque sensor (TFF400, Futek—Irvine, Calif.) secured to the axle such that the sensing axis was collinear with the center of rotation. […] In the ROM group, pre-set programmable torque values, specific for each animal and measured at baseline (TOUT and TINT), were used as input variables in order to detect changes in rotation ROM with 0.2° resolution. […] For each animal, torque was measured per degree, on the intact left shoulder as a function of rotation angle between 1000 of internal rotation and 600 of external rotation prior to any surgical intervention. […]

[6] = system: human fibroblasts; conditions: cited from earlier work
[7] = system: collagen I expression in human fibroblast-like synoviocytes (HFLS); experiment: Collagen I expression in synoviocytes treated with relaxin-2 microparticles in transwells; type: cell-based
Text: Human fibroblast-like synoviocytes (HFLS) treated with relaxin-2 microparticles in transwells allow for evaluation of the release and efficacy of released relaxin-2 at various time points. […] In the presence of relaxin-2, collagen I is expressed at 20 to 30% of the basal level at weeks 1, 3, and 4.

[8] = cited from earlier work
[9] = Circular dichroism spectroscopy of relaxin-2 fold and stability; type: physicochemical; conditions: for time relaxin-2 is stable: 37° C., no loss of alpha helical structure
Experimental: Relaxin-2 loaded PLGA microparticles (RMPs) were prepared based on the water/oil/water (w/o/w) method as described by Igartua, M., et. al., International Journal of Pharmaceutics, 1998, 169(1): 45-54 at 1.27×10-3 wt % loaded relaxin as determined by ELISA analysis. Significant optimization and tailoring of the method was required to obtain the particle. Amounts, time, temperature, mixing speed, polymer LA:GA content were all varied to identify a unique non-obvious set of conditions to prepare the polymer. […] Relaxin-2 in the relaxin-2 microparticles maintained its native secondary and tertiary structure through the w/o/w double-emulsion process. […] Additionally, relaxin-2 was stable at 37° C. over 2 months (FIG. 2, right). The relaxin-2 PLGA microparticles were prepared with batch-to-batch consistency and were resuspended in PEG-600 to reduce aggregation and flocculation, as well as to ease administration through a 23 G needle.
Two amphiphilic hydrogels were synthesized for the physical entrapment of relaxin-2 in order to control its sustained release (FIG. 6). These amphiphilic molecules melted at 95° C. and congealed when slowly cooled back to room temperature strictly from non-covalent interactions. The alkyl chain of 1 and alkyl fluoride chain of 2 allow for hydrophobic interactions between each molecule, while the trizol and thymidine moieties allow for pi-pi stacking. Lastly, the deoxyribose and glucose groups facilitate hydrogen bonding (Godeau, G., et al., Tetrahedron Letters 2010, 51: 1012-1015; Ramen, F. A. et al., Biomaterials. 2017, 145: 72-80). Together, these amphiphilic molecules create unique and stable supramolecular assemblies that are stable at 37° C. for at least two weeks. This stability feature is another novel finding and benefit to the use of the hydrogels. Three gels of each 1 and 2 were created with bovine serum albumin and relaxin-2 at different densities by dissolving each molecule in a solution of phosphate buffered saline with protein and heating to 95° C. for 30 minutes. […]

[10] = system: scleroderma; conditions: cited from earlier work
[11] = regressed when marimastat was stopped; cited from earlier work

## Relaxin-2
[1]
  fibronectin levels and degradation: decreased TGF-β-induced fibronectin levels and increased fibronectin degradation
[2]
  histology: adhesions / hallmarks of arthrofibrosis: lacked any apparent adhesions
[3]
  collagen build-up in the lung and overall fibrosis: decreased collagen build-up
[4]
  trial's primary endpoint of effectiveness: did not meet the trial's primary endpoint of effectiveness
[5]; intravenous injection at a much greater dose
  internal ROM: similarly constricted internal ROM compared with the untreated control group
[5]; mIA relaxin-2 5 x 2 ug/kg every other day, or single intraarticular RMP approx. 10 ug/kg, follow-up 8 weeks
  internal ROM: significant increase back to healthy baseline by week 2
[5]; mIA relaxin-2 5 x 2 ug/kg every other day, or single intraarticular RMP approx. 10 ug/kg, follow-up 8 weeks, listed as relaxin-2
  internal ROM: restoration of internal ROM to baseline measurements
[5]; singular articular injection
  internal ROM: similarly constricted internal ROM compared with the untreated control group
[6]
  levels of collagen types I and III and fibronectin: reduction
[7]; after release of relaxin-2 from microparticles, FIG. 4 legend
  collagen I reduced to (densitometry): approximately 50%
[7]; relaxin-2 released over four weeks, synoviocytes
  collagen I expression compared to untreated control: significant downregulation in collagen I expression
[8]; bolus dose
  efficacy in animals: not be effective
[8]; sustained dose
  efficacy in animals: effective
[9]
  time relaxin-2 is stable: up to 2 months
[9]; listed as relaxin-2
  time relaxin-2 is stable: 2 months
[9]; circular dichroism, freshly prepared vs emulsified
  secondary/tertiary structure of relaxin-2 after w/o/w double emulsion process: no change; also recorded: unaffected by the double emulsion process
[10]; 25 micrograms/kg/day for 24 weeks, subcutaneous delivery
  trial's primary endpoint of effectiveness: did not meet the trial's primary endpoint of effectiveness
[10]; in vivo, sc
  adverse events: declines in creatine clearance and renal adverse events

## CNC(=O)[C@@H](NC(=O)[C@H](CC(C)C)[C@H](O)C(=O)NO)C(C)(C)C [marimastat]
[11]
  adverse effect in patients: developed shoulder contractures
